# Reference: patent publication US6197788A, “(-)-mefloquine to block puringergic receptors and to treat movement or neurodegenerative disorders” (Vernalis Research Limited, priority 1997, dated 2001)
# Read-outs that look alike come from different tables or passages of the source.
# Experiments:
# [1] = tested on: mouse striatal and frontal cortex neurochemistry; settings: for dopamine or 5-HT neurochemistry and transmitter metabolites: (+)- versus (-)-enantiomer
# [2] = target: bovine striatal adenosine receptors; assay: Displacement of [3H]-NECA (non-selective P1 ligand) binding to striatal membranes
# [3] = human, in vivo; cited from earlier work
# [4] = tested on: haloperidol-induced catalepsy; assay: Haloperidol-induced catalepsy in the rat; settings: 0.1-10 mg/kg p.o. 6 h prior to testing; haloperidol 0.2 mg/kg i.p.
# Experimental: Evaluation of Potential Anti-Parkinsonian Activity in vivo Haloperidol-induced Catalepsy in the Rat
# This method assessed the ability of an animal to respond to an externally imposed posture after receiving the neuroleptic dopamine D2 antagonist haloperidol.
# Haloperidol (0.2 mg/kg) was obtained in injectable form and diluted to a final concentration using physiological saline. 3,7-Dimethyl-1-propargylxanthine(DMPX) (0, 3 mg/kg) was dissolved in saline. All drugs were administered in a volume of 2 ml/kg.
# The test procedure was as follows:
# Step I The rat was taken out of the home cage and placed on a table.
# Step II The front paws of the rat were placed alternately on a 3 cm high wooden block.
# Step III The front paws of the rat were placed alternately on a 9 cm high wooden block. […] Thus for any animal the highest score obtainable was 3.5 (cut-off score) reflecting total catalepsy.
# Data from the experiment were analysed using Kruskal-Wallis ANOVA followed by Mann-Whitney U test when appropriate, and are expressed as means +/- standard error of the mean *p<0.05 versus vehicle control.
# [5] = target: human recombinant (HEK-293) adenosine A2A receptor; settings: read-out: Ki adenosine A2A, cited from earlier work
# [6] = target: human recombinant (HEK-293) adenosine A3 receptor; settings: read-out: Ki adenosine A3; cited from earlier work
# catalepsy = settings: cited from earlier work
# adenosine A1 receptor = settings: read-out: Ki adenosine A1, cited from earlier work
# [7] = tested on: haloperidol-induced catalepsy; settings: literature; cited from earlier work
# Parkinson's disease = settings: 150 mg/day slow release oral, up to 12 weeks, cited from earlier work
# [8] = 150 mg/day slow release oral, after one week; 10080 min; cited from earlier work
structure (smiles),measurement,setting,value
"O[C@H](c1cc(C(F)(F)F)nc2c(C(F)(F)F)cccc12)[C@@H]1CCCCN1 [(+) enantiomer, (+)-(11R,2'S)-α-2-piperidinyl-2,8-bis(trifluoromethyl)-4-quinolinemethanol]",frontal cortex acetylcholine,"[1]; 100 mg/kg p.o., 24 h",unaffected
same,dopamine or 5-HT neurochemistry and transmitter metabolites,"[1]; 100 mg/kg p.o., 24 h",No significant difference
same,Ki,[2],38000 nM
"O[C@@H](c1cc(C(F)(F)F)nc2c(C(F)(F)F)cccc12)[C@H]1CCCCN1 [(-) enantiomer, (-)-(11S,2'R)-α-2-piperidinyl-2,8-bis(trifluoromethyl)-4-quinolinemethanol]",half life,[3],14.4 days
same,blocking of haloperidol-induced catalepsy,[4],capable of blocking haloperidol-induced catalepsy
same,frontal cortex acetylcholine,"[1]; 100 mg/kg p.o., 24 h",unaffected
same,"striatal acetylcholine content, (-)- versus (+)-enantiomer","[1]; 100 mg/kg p.o., 24 h",significantly higher
same,"striatal acetylcholine content, post-hoc Duncan's test between enantiomers","[1]; 100 mg/kg p.o., 24 h",between the (+)-enantiomer and the (-)-enantiomer (p<0.01)
same,"striatal acetylcholine content, post-hoc Duncan's test versus vehicle","[1]; 100 mg/kg p.o., 24 h",significant difference between vehicle and the (-)-enantiomer (p<0.05)
same,dopamine or 5-HT neurochemistry and transmitter metabolites,"[1]; 100 mg/kg p.o., 24 h",No significant difference
same,acetylcholine release in striatum (suggested by FIG. 6),[1]; inferred from tissue acetylcholine content,inhibits acetylcholine release in striatum
same,Ki,[2],83 nM
OC[C@H]1O[C@@H](n2cnc3c(NC4CCCCC4)ncnc32)[C@H](O)[C@@H]1O [CHA],Ki,[5],510 nM
same,Ki,[6],7700 nM
"CCCn1c(=O)c2c(nc(/C=C/c3ccc(OC)c(OC)c3)n2C)n(CCC)c1=O [KF17837, (E)-8-(3,4-dimethoxystyryl)-1,3-dipropyl-7-methylxanthine]",anticataleptic effects of a subthreshold dose of L-DOPA plus benserazide,catalepsy; combination,potentiated
same,catalepsy induced by haloperidol and reserpine,catalepsy; in vivo,reduced
same,cataleptic responses induced by intracerebroventricular CGS 21680,catalepsy; oral administration,significantly ameliorated
same,Ki,adenosine A1 receptor; comparative literature data,390 nM
same,Ki,[5]; comparative literature data,8 nM
CCn1c(=O)c2c(nc(/C=C/c3ccc(OC)c(OC)c3)n2C)n(CC)c1=O [KW-6002],Ki,adenosine A1 receptor,580 nM
same,Ki,[5],13 nM
N[C@@H](Cc1ccc(O)c(O)c1)C(=O)O [L-DOPA],blocking of haloperidol-induced catalepsy,[7],block haloperidol-induced catalepsy
"CNC(=O)[C@H]1O[C@@H](n2cnc3c(N)ncnc32)[C@H](O)[C@@H]1O [MECA, 5'-N-methylcarboxamidoadenosine]",Ki,[2],58 nM
"Cn1c(=O)c2[nH]cnc2n(C)c1=O [THEOPHYLLINE, theophylline]",mean objective disability scores,Parkinson's disease; 15 patients,significant improvements
same,patients reporting moderate or marked subjective improvement,Parkinson's disease; of 15 patients,11
same,serum theophylline levels,[8],4.44 mg/L
